Results from patent US20230406831A1, “COMPOUNDS AND METHODS OF INHIBITING BACTERIAL CHAPERONIN SYSTEMS” (THE TRUSTEES OF INDIANA UNIVERSITY, priority 2020, published 2023).

Legend:
GroEL/ES = molecular target: T1, GroEL/ES (Escherichia coli, UniProt P0A6F5); test: GroEL/ES-mediated dMDH refolding assay; type: biochemical, E. coli; settings: Table 3; 37° C., 1 mM ATP; read-out: Biochemical Assay IC50 GroEL/ES-dMDH Refolding
T1 construct: made in house; host or cells: GroEL in E. coli DH5a; GroES in E. coli BL21 (DE3)
T1 sequence (P0A6F5 2-548): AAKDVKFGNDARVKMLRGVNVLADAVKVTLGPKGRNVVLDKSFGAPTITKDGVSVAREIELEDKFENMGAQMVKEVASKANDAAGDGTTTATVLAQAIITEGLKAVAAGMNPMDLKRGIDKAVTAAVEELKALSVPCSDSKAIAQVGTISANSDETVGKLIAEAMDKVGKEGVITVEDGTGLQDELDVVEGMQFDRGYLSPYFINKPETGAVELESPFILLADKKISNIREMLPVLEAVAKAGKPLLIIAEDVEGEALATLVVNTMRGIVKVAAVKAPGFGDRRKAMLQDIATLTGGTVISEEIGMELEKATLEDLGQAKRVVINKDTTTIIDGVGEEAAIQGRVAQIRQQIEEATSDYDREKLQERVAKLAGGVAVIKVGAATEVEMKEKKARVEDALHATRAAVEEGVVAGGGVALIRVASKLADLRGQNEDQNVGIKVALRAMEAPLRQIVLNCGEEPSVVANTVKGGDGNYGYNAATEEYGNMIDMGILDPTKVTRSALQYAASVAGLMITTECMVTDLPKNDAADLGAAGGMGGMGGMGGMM
Procedure: (§1) Evaluation of compounds ability to inhibit GroEL/ES and HSP60/10-mediated dMDH refolding assays.
(§2) Reagent preparation: For these assays, four primary reagent stocks were prepared: 1) GroEL/ES-dMDH or HSP60/10-dMDH binary complex stock; 2) ATP initiation stock; 3) EDTA quench stock; 4) MDH enzymatic assay stock. Denatured MDH (dMDH) was prepared by 2-fold dilution of MDH (5 mg/ml, soluble pig heart MDH from Roche, product #10127248001) with denaturant buffer (7 M guanidine-HCl, 200 mM Tris, pH 7.4, and 50 mM DTT). MDH was completely denatured by incubating at room temperature for 45 min. The binary complex solutions were prepared by slowly adding the dMDH stock to a stirring stock with GroEL (or HSP60) in folding buffer (50 mM Tris-HCl, pH 7.4, 50 mM KCl, 10 mM MglC2, and 1 mM DTT), followed by addition of GroES (or HSP10). The binary complex stocks were prepared immediately prior to dispensing into the assay plates and had final protein concentrations of 83.3 nM GroEL (Mr 800 kDa) or HSP60 (Mr 400 kDa), 100 nM GroES or HSP10 (Mr 70 kDa), and 20 nM dMDH in folding buffer. For the ATP initiation stock, ATP solid was diluted into folding buffer to a final concentration of 2.5 mM. Quench solution contained 600 mM EDTA (pH 8.0). The MDH enzymatic assay stock consisted of 20 mM sodium mesoxalate and 2.4 mM NADH in reaction buffer (50 mM Tris-HCl, pH 7.4, 50 mM KC1, and 1 mM DTT).
(§3) Assay Protocol: First, 30 μL aliquots of the GroEL/ES-dMDH or HSP60/10-dMDH binary complex stocks were dispensed into clear, 384-well polystyrene plates. Next, 0.5 μL of the compound stocks (10 mM to 4.6 μM, 3-fold dilutions series in DMSO) were added by pin-transfer (V&P Scientific). The chaperonin-mediated refolding cycles were initiated by addition of 20 IA of ATP stock (reagent concentrations during refolding cycle: 50 nM GroEL or HSP60, 60 nM GroES or HSP10, 12 nM dMDH, 1 mM ATP, and compounds of 100 μM to 46 nM, 3-fold dilution series). The refolding reactions were incubated at 37° C. The incubation time was determined from refolding time-course control experiments until they reached ˜90% completion of refolding cycle — generally ˜20-40 min for GroEL/ES, and ˜40-60 min for HSP60/10). Next, the assay was quenched by addition of 10 μL of the EDTA to final concentration of 100 mM. […] A340 nm measurements were recorded at 0.5 minutes (start point) and at successive time points until the amount of NADH consumed reached ˜90% (end point, generally between 20-35 minutes). The differences between the start and end point A340 values were used to calculate the % inhibition of the GroEL/ES or HSP60/10 machinery by the compounds. IC50 values for the test compounds were obtained by plotting the % inhibition results in GraphPad Prism 6 and analyzing by non-linear regression using the log (inhibitor) vs. response (variable slope) equation. Results presented represent the averages of IC50 values obtained from at least quadriplicate (duplicate of duplicate) replicates. For results, see Tables 1, 2, and 3.

HSP60/10 = molecular target: T2, HSP60/10 (Homo sapiens, UniProt P10809); test: HSP60/10-mediated dMDH refolding assay; type: biochemical; settings: Table 3; 37° C., 1 mM ATP; read-out: Biochemical Assay IC50 HSP60/10-dMDH Refolding
T2 construct: octa-Histidine (His8) tag, TEV-cleavable (N, cleaved yes); made in house; host or cells: HSP60 in Rosetta 2 (DE3) E. coli; HSP10 in Rosetta 2 (DE3) pLysS
T2 sequence (P10809 27-573): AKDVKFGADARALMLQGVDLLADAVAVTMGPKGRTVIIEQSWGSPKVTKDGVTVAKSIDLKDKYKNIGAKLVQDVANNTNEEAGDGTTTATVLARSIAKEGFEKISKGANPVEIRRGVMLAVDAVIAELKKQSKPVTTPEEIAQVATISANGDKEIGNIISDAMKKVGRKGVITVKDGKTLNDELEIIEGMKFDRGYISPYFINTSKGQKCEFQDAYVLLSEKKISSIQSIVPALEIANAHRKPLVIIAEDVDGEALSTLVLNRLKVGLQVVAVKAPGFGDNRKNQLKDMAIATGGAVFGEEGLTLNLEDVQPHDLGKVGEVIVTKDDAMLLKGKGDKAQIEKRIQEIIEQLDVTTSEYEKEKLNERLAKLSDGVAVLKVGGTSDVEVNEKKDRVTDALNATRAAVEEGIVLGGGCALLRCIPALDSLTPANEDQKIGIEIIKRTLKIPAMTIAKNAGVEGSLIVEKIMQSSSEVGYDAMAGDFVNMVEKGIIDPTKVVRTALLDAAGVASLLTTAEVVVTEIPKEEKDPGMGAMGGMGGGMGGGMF
Procedure: as §1, §2, §3

S. aureus = S. aureus bacterial proliferation assay; type: cell-based; settings: Staphylococcus aureus; Table 3; cation adjusted BHI media, OD600 at 6-8 h; read-out: S. aureus Proliferation EC50
Procedure: Evaluation of compounds for inhibition of bacterial cell proliferation.
Growth Media: S. aureus bacteria were grown in Brain Heart Infusion (BHI) broth/agar (Becton, Dickinson and Company). All liquid cultures were grown in BHI media supplemented with 25 mg/L Ca^2+ and 12.5 mg/L Mg^2+ to mimic free physiological concentrations of these cations. A 10 mg/mL Ca^2+ stock solution was prepared by dissolving 3.68 g of CaCl2·2H^2O in 100 mL of deionized water, and a 10 mg/mL Mg^2+ stock solution was prepared by dissolving 8.36 g of […] in 100 mL deionized water. Both stock solutions were filter-sterilized using 0.2 μm pore size cellulose-acetate filters. 2.5 mL of the sterile 10 mg/mL Ca^2+ stock and 1.25 mL of the sterile 10 mg/mL Mg^2+ stock solutions were added per 1 L of autoclaved BHI medium to obtain 25 mg/L Ca^2+ and 12.5 mg/L Mg^2+ ions, respectively.
General Assay Protocol: Stock bacterial cultures were streaked onto BHI agar plates and grown overnight at 37° C. Fresh aliquots of broth were inoculated with single bacterial colonies and the cultures were grown overnight at 37° C. with shaking (240 rpm) in cation adjusted BHI media. The following morning, the overnight cultures were sub-cultured (1:5 dilution) into fresh aliquots of cation adjusted BHI media and grown at 37° C. for 1-2 hours with shaking. After 2 h, cultures were diluted into fresh media to achieve final OD600 readings of 0.017. Aliquots of these diluted cultures (30 μL) were added to clear, flat-bottom, 384-well polystyrene plates that were stamped with 0.5 μL of test compounds in 20 μL media. Compounds were evaluated in dose-response format where the inhibitor concentration range during the proliferation assay was 100 μM to 46 nM (3-fold dilution series). Plates were sealed with “Breathe Easy” oxygen permeable membranes (Diversified Biotech) and left to incubate at 37° C. without shaking (stagnant assay). OD600 nm readings were taken generally at 6-8 h, when bacteria had reached log-phase growth. A second set of baseline control plates were prepared analogously, but without any bacteria added, to correct for possible compound absorbance and/or precipitation. Plates were then read at 600 nm using a Molecular Devices SpectraMax Plus384 microplate reader. EC50 values for the test compounds were obtained by plotting the OD600 results in GraphPad Prism and analyzing by non-linear regression using the log(inhibitor) vs. response (variable slope) equation. For results, see Tables 1, 2, and 3.

[1] = HEK 293 kidney cell viability / cytotoxicity assay (Alamar Blue); type: cell-based; settings: human, HEK 293 kidney cells; Table 3; 48 h incubation, Alamar Blue; read-out: HEK 293 Kidney Cell Viability CC50
Procedure: Evaluating compound effects on kidney cell viability.
HEK 293 cells were maintained in MEM medium (Corning Cellgro, 10-009 CV) supplemented with 10% FBS (Sigma, F2242). […] Cells at 80% confluence were harvested and diluted in growth medium, then 45 μL of the HEK 293 cells (1,500 cells/well) were dispensed per well, and plates were sealed with “Breathe Easy” oxygen permeable membranes (Diversified Biotech) and incubated at 37° C., 5% CO2, for 24 h. […] Plates were sealed with “Breathe Easy” oxygen permeable membranes and incubated for an additional 48 h at 37° C. and 5% CO2. The Alamar Blue reporter reagents were then added to a final concentration of 10%, the plates incubated at 37° C. and 5% CO2, and sample fluorescence (535 nm excitation, 590 nm emission) was read using a Molecular Devices FlexStation II 384-well plate reader (readings taken between 4-24 h of incubation so as to achieve signals in the 30-60% range for conversion of resazurin to resorufin). Cell viability was calculated as per vendor instructions (Thermo Fisher—Alamar Blue cell viability assay manual).

O=C(O)c1ccc(NC(=O)c2cc(Cl)ccc2O)cc1 [Compound 109, 4-(5-chloro-2-hydroxybenzamido)benzoic acid]
> 100 µM: IC50 (GroEL/ES) | IC50 (HSP60/10) | EC50 (S. aureus) | CC50 at 48 h [1]
